Source: patent US20240002388A1, “PYRIMIDINONE COMPOUNDS AND USES THEREOF” (HUTCHISON MEDIPHARMA LIMITED, priority 2020, published 2024)

Biological target: RIPK1 recombination protein (Homo sapiens (Human), UniProt Q13546)
Test: RIPK1 kinase activity assay (ADP-Glo)
Type: biochemical
Details: RIPK1 kinase activity, ADP-Glo, 10 μM ATP
Procedure, shortened: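 GST-purified recombinant human RIPK1 (40 nM final) with 10 μM ATP in NaCl/MgCl2/BSA/CHAPS/DTT kinase buffer, 3 h at room temperature; compounds at 10 to 0.005 μM (3-fold). ADP formed measured by ADP-Glo luminescence; inhibition normalized to no-enzyme and no-inhibitor controls, IC50 by curve fit.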

RIPK1 recombination protein, sequence (Q13546 other isoform, or with tags, fused parts or gaps): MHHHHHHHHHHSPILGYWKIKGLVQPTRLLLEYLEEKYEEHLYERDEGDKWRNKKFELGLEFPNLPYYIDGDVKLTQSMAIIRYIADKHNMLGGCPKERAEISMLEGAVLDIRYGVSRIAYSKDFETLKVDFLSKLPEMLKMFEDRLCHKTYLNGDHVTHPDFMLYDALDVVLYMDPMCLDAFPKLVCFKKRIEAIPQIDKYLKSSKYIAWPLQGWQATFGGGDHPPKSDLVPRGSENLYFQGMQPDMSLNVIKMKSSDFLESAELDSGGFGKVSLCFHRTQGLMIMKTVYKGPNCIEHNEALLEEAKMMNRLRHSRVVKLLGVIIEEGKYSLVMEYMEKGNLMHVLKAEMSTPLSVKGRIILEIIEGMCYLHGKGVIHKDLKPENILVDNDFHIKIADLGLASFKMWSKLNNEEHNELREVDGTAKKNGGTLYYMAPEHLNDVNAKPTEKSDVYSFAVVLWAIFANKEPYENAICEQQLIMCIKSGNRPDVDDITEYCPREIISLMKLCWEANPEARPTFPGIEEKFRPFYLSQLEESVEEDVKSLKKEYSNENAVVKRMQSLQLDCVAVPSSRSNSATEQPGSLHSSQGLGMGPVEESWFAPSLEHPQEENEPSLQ

Row | IC50 | Compound
1 | 56 nM | CC(C)n1ncc2cnc(C(=O)NC3(c4ccc(-c5cncn(C6CCC6)c5=O)cc4)CC3)nc21 [Compound 42]
2 | 32 nM | CC[C@H](C)n1cncc(-c2ccc(C3(NC(=O)c4ncc5cnn(C(C)C)c5n4)CC3)cc2)c1=O [Compound 43]
3 | 37 nM | CC[C@@H](C)n1cncc(-c2ccc(C3(NC(=O)c4ncc5cnn(C(C)C)c5n4)CC3)cc2)c1=O [Compound 44]
4 | 59 nM | CC(C)n1cncc(-c2ccc(C3(NC(=O)c4ncc5cnn(C6COC6)c5n4)CC3)cc2)c1=O [Compound 60]
5 | 17 nM | O=C(NC1(c2ccc(-c3cncn(CC4CC4)c3=O)cc2)CC1)c1ncc2cnn(CC3CC3)c2n1 [Compound 64]
6 | 36 nM | CC(C)n1ncc2cnc(C(=O)NC3(c4ccc(-c5cncn(C6CC(F)(F)C6)c5=O)cc4)CC3)nc21 [Compound 65]
7 | 48 nM | CC(C)n1ncc2cnc(C(=O)NC3(c4ccc(-c5cncn(CC6CCC6)c5=O)cc4)CC3)nc21 [Compound 66]
8 | 49 nM | CC(C)n1ncc2cnc(C(=O)NC3(c4ccc(-c5cncn([C@H]6C[C@@H]6F)c5=O)cc4)CC3)nc21 [Compound 67]
9 | 21 nM | CC(C)n1ncc2cnc(C(=O)NC3(c4ccc(-c5cncn([C@@H]6C[C@@H]6F)c5=O)cc4)CC3)nc21 [Compound 69]
10 | 51 nM | C[C@@H](n1cncc(-c2ccc(C3(NC(=O)c4ncc5cnn(CC6CC6)c5n4)CC3)cc2)c1=O)C(F)(F)F [Compound 70]
11 | 110 nM | C[C@H](n1cncc(-c2ccc(C3(NC(=O)c4ncc5cnn(CC6CC6)c5n4)CC3)c(F)c2)c1=O)C(F)(F)F [Compound 71]
12 | 65 nM | CC(C)n1cncc(-c2ccc(C3(NC(=O)c4ncc5cnn(CC6CC6)c5n4)CC3)c(F)c2)c1=O [Compound 72]
13 | 52 nM | CC(C)n1cncc(-c2ccc(C3(NC(=O)c4ncc5cnn(CC6CC6)c5n4)CC3)cc2F)c1=O [Compound 73]
14 | 62 nM | CC(C)n1ncc2cnc(C(=O)NC3(c4ccc(-c5cncn(CC6CC6)c5=O)cc4F)CC3)nc21 [Compound 74]
15 | 42 nM | CC(C)n1ncc2cnc(C(=O)NC3(c4ccc(-c5cncn(C6CCOCC6)c5=O)cc4)CC3)nc21 [Compound 77]
16 | 33 nM | CC(C)n1ncc2cnc(C(=O)NC3(c4ccc(-c5cncn(C6(C)CC6)c5=O)cc4)CC3)nc21 [Compound 78]
17 | 21 nM | CC(C)n1ncc2cnc(C(=O)NC3(c4ccc(-c5cncn(C6(C)CCC6)c5=O)cc4)CC3)nc21 [Compound 79]
18 | 45 nM | CC(C)n1ncc2cnc(C(=O)NC3(c4ccc(-c5cncn([C@H](C)C6CC6)c5=O)cc4)CC3)nc21 [Compound 84, (R)—N-(1-(4-(1-(1-cyclopropylethyl)-6-oxo-1,6-dihydropyrimidin-5-yl)phenyl)cyclopropyl)-1-i-propyl-1H-pyrazolo[3,4-d]pyrimidine-6-carboxamide]
19 | 14 nM | CC(C)n1ncc2cnc(C(=O)NC3(c4ccc(-c5cncn(CC6(C)CC6)c5=O)cc4)CC3)nc21 [Compound 86]
20 | 48 nM | CC(C)n1cncc(-c2ccc(C3(NC(=O)c4ncc5cnn([C@H](C)C6CC6)c5n4)CC3)cc2)c1=O [Compound 89, (R)-1-(1-cyclopropylethyl)-N-(1-(4-(1-i-propyl-6-oxo-1,6-dihydropyrimidin-5-yl)phenyl)cyclopropyl)-1H-pyrazolo[3,4-d]pyrimidine-6-carboxamide]
21 | 54 nM | CC(C)n1cncc(-c2ccc(C3(NC(=O)c4ncc5cnn([C@@H](C)C6CC6)c5n4)CC3)cc2)c1=O [Compound 90, (S)-1-(1-cyclopropylethyl)-N-(1-(4-(1-i-propyl-6-oxo-1,6-dihydropyrimidin-5-yl)phenyl)cyclopropyl)-1H-pyrazolo[3,4-d]pyrimidine-6-carboxamide]
22 | 35 nM | CC(C)n1cncc(-c2ccc(C3(NC(=O)c4ncc5cnn(C(C)C)c5n4)CC3)c(F)c2F)c1=O [Compound 93]
23 | 28 nM | CC(C)n1ncc2cnc(C(=O)NC3(c4ccc(-c5cncn(CC6CC6)c5=O)c(F)c4F)CC3)nc21 [Compound 95]

Continued, molecule first:

Row | Compound | IC50
24 | CC(C)Cn1cncc(-c2ccc(C3(NC(=O)c4ncc5cnn(C(C)C)c5n4)CC3)cc2)c1=O [Compound 45] | 40 nM
25 | Cn1cncc(-c2ccc(C3(NC(=O)c4nc5n(n4)[C@@H](c4ccccc4)CC5)CC3)cc2)c1=O [Compound 54, (R)—N-(1-(4-(1-methyl-6-oxo-1,6-dihydropyrimidin-5-yl)phenyl)cyclopropyl)-5-phenyl-6,7-dihydro-5H-pyrrolo[1,2-b][1,2,4]triazole-2-carboxamide] | 27 nM
26 | C[C@H](c1ccccc1)n1cnc(C(=O)NC2(c3ccc(-c4cncn(C)c4=O)cc3)CC2)n1 [Compound 55, (R)—N-(1-(4-(1-methyl-6-oxo-1,6-dihydropyrimidin-5-yl)phenyl)cyclopropyl)-1-(1-phenylethyl)-1H-1,2,4-triazole-3-carboxamide] | 23 nM
27 | CC(C)n1cncc(-c2ccc(C3(NC(=O)c4ncc5cnn(CC6CC6)c5n4)CC3)cc2)c1=O [Compound 61] | 14 nM
28 | CC(C)n1cncc(-c2ccc(C3(NC(=O)c4ncc5cnn(CC6CCC6)c5n4)CC3)cc2)c1=O [Compound 62] | 21 nM
29 | CC(C)n1cncc(-c2ccc(C3(NC(=O)c4ncc5cnn(-c6ccccn6)c5n4)CC3)cc2)c1=O [Compound 63] | 37 nM
30 | C[C@H](n1cncc(-c2ccc(C3(NC(=O)c4ncc5cnn(CC6CC6)c5n4)CC3)cc2)c1=O)C(F)(F)F [Compound 68] | 43 nM
31 | CC(C)n1ncc2cnc(C(=O)NC3(c4ccc(-c5cncn(CC6CC6)c5=O)c(F)c4)CC3)nc21 [Compound 75] | 51 nM
32 | C[C@@H](n1cncc(-c2ccc(C3(NC(=O)c4ncc5cnn(CC6CC6)c5n4)CC3)c(F)c2)c1=O)C(F)(F)F [Compound 76] | 51 nM
33 | CC(C)n1ncc2cnc(C(=O)NC3(c4ccc(-c5cncn([C@@H](C)C6CC6)c5=O)cc4)CC3)nc21 [Compound 85, (S)—N-(1-(4-(1-(1-cyclopropylethyl)-6-oxo-1,6-dihydropyrimidin-5-yl)phenyl)cyclopropyl)-1-i-propyl-1H-pyrazolo[3,4-d]pyrimidine-6-carboxamide] | 30 nM
34 | CC(C)n1ncc2cnc(C(=O)NC3(c4ccc(-c5cncn([C@H]6C[C@H](F)C6)c5=O)cc4)CC3)nc21 [Compound 87, N-(1-(4-(1-(trans-3-fluorocyclobutyl)-6-oxo-1,6-dihydropyrimidin-5-yl)phenyl)cyclopropyl)-1-i-propyl-1H-pyrazolo[3,4-d]pyrimidine-6-carboxamide] | 41 nM
35 | CC(C)n1ncc2cnc(C(=O)NC3(c4ccc(-c5cncn([C@H]6C[C@@H](F)C6)c5=O)cc4)CC3)nc21 [Compound 88, N-(1-(4-(1-(cis-3-fluorocyclobutyl)-6-oxo-1,6-dihydropyrimidin-5-yl)phenyl)cyclopropyl)-1-i-propyl-1H-pyrazolo[3,4-d]pyrimidine-6-carboxamide] | 41 nM
36 | CC(C)n1cncc(-c2ccc(C3(NC(=O)c4ncc5cnn(C(C)C)c5n4)CC3)c(F)c2Cl)c1=O [Compound 91] | 72 nM
37 | CC(C)n1cncc(-c2cc(F)c(C3(NC(=O)c4ncc5cnn(C(C)C)c5n4)CC3)c(F)c2)c1=O [Compound 92] | 104 nM
38 | CC(C)n1ncc2cnc(C(=O)NC3(c4cc(F)c(-c5cncn(CC6CC6)c5=O)cc4F)CC3)nc21 [Compound 94] | 27 nM
